The record followed here is US20090311217A1, “3-SUBSTITUTED-1H-INDOLE COMPOUNDS, THEIR USE AS MTOR KINASE AND PI3 KINASE INHIBITORS, AND THEIR SYNTHESES” (priority 2008, published 2009).

A value given as a limit tells only on which side of the number the result lay.

Holding throughout (type): biochemical
In one assay the target is PI3K-gamma (Homo sapiens, UniProt P48736). Description: PI3K-gamma fluorescence polarization assay. The settings on record: PI3Kγ Avg. IC50. The procedure, abridged:
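Reactions in 5 mM HEPES pH 7, 2.5 mM MgCl2, 25 μM ATP with 2.5 μM diC8-PI(4,5)P2 and 5 ng enzyme, 1 h at 25° C, then EDTA quench. Product detected by FP using GST-GRP1 PH domain (100 nM) and BODIPY-TMR-IP4 tracer (5 nM); final DMSO 0.8%.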
Background: Fluorescence polarisation rises when a labelled molecule tumbles more slowly, as on binding a larger partner.

The next assay concerns the target T1, human TOR (Homo sapiens, UniProt P42345).
T1 construct: FLAG
Description: mTOR enzyme assay (DELFIA, His6-S6K substrate). The settings on record: read-out: mTOR Kinase Avg. IC50.

For the next assay, the target named is PI3K-alpha (Homo sapiens, UniProt P42336). The assay is described as follows: PI3K-alpha fluorescence polarization assay. The settings on record: read-out: PI3Kα Avg. IC50.
Sequence of PI3K-alpha (P42336 whole entry, species assumed): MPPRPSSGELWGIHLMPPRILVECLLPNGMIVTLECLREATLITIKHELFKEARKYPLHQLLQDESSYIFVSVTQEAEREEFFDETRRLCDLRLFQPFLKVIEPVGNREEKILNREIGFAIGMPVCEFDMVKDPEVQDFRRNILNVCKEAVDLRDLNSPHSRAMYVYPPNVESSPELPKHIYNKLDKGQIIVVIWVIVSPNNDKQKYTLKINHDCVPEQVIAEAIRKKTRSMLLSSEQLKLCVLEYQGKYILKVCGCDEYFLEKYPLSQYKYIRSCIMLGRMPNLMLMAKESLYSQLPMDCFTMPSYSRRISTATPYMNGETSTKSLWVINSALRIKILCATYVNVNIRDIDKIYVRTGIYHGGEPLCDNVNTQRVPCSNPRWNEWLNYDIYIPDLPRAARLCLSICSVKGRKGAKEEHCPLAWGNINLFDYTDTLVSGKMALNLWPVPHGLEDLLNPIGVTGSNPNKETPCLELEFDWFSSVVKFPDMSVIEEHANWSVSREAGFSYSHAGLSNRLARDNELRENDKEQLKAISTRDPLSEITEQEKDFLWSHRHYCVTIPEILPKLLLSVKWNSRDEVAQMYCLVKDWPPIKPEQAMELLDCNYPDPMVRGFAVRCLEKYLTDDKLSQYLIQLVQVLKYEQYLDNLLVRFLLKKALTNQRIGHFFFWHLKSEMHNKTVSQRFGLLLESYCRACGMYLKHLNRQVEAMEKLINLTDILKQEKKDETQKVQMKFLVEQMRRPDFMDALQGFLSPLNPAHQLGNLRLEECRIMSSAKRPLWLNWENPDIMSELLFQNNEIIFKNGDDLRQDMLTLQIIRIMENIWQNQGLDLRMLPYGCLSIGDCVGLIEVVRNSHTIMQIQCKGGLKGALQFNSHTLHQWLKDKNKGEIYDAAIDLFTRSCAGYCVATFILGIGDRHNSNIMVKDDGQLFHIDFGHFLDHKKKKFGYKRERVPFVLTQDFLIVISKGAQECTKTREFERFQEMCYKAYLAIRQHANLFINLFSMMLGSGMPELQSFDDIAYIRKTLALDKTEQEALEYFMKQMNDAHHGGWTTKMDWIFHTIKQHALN
Sequence of PI3K-alpha (P27986 whole entry partner, species assumed): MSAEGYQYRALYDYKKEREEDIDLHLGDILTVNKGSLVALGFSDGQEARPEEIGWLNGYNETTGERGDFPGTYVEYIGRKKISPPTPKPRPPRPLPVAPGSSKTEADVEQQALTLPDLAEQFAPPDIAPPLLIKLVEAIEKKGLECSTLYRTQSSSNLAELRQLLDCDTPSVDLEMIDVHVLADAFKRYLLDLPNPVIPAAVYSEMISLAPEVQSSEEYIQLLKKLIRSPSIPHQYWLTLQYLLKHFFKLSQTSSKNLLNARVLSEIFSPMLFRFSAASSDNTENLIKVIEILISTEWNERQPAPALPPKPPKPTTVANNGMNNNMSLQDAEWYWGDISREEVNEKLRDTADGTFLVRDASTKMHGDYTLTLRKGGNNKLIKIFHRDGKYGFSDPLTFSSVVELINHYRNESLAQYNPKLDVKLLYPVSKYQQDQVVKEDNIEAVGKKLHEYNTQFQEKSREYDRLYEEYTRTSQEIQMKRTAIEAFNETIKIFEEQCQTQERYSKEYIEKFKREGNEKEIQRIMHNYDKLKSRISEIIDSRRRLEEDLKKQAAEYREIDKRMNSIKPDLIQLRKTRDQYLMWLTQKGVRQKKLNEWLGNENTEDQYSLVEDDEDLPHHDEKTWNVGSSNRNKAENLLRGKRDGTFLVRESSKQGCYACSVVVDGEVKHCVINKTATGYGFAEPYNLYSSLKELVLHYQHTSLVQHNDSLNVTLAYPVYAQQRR

Sequence of PI3K-gamma (P48736 whole entry, species assumed, the tested form may be a part): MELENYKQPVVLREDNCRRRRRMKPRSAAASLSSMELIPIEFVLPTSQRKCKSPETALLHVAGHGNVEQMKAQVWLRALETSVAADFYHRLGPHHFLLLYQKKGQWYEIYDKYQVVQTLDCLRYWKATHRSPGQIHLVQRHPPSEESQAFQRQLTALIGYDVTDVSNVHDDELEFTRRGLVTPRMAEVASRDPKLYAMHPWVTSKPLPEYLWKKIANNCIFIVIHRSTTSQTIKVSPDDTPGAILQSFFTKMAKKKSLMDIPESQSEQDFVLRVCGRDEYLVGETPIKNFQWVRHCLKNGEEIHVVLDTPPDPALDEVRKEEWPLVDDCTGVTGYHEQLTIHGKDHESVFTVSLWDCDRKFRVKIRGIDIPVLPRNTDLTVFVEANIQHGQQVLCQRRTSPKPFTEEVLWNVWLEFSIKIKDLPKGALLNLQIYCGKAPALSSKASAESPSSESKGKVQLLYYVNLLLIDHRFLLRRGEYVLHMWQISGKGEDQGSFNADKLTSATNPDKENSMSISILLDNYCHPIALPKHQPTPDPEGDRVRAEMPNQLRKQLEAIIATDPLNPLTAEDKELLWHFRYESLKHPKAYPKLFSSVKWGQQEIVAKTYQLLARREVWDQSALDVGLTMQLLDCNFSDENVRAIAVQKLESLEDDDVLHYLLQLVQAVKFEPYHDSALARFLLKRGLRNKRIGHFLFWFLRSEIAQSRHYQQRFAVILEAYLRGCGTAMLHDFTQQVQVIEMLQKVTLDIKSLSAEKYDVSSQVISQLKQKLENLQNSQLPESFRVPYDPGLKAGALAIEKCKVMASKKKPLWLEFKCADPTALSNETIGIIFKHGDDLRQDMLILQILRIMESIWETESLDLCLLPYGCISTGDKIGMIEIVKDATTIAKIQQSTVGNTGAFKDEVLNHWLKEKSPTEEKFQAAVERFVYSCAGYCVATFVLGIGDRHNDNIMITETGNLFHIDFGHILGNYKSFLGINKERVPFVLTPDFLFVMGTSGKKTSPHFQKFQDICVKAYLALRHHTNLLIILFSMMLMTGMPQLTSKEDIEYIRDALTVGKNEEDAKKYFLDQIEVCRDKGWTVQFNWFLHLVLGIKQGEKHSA

The IC50 is the midpoint of a concentration-inhibition curve. Regarding `COc1ccc2c(c1)c(/C=C1\Oc3cc(O)cc(O)c3C1=O)c(C1CC1)n2CCN1CCC(O)CC1` [Example 315, (2Z)-2-({2-Cyclopropyl-1-[2-(4-hydroxypiperidin-1-yl)ethyl]-5-methoxy-1H-indol-3-yl}methylene)-4,6-dihydroxy-1-benzofuran-3(2H)-one], the IC50 against PI3K-gamma was found to be 26.5 nM; on human TOR it was 4.2 nM; at PI3K-alpha it was 3 nM.
Consider `COc1ccc2c(c1)c(/C=C1\Oc3cc(O)cc(O)c3C1=O)c(C)n2CC(=O)N(C)C` [Example 322, 2-{3-[(Z)-(4,6-Dihydroxy-3-oxo-1-benzofuran-2(3H)-ylidene)methyl]-5-methoxy-2-methyl-1H-indol-1-yl}-N,N-dimethylacetamide], for which the results for the IC50 against PI3K-gamma, at human TOR and at PI3K-alpha were 178 nM, 23 nM and 39.8 nM, respectively.
The like results for `COc1ccc2c(c1)c(/C=C1\Oc3cc(O)ccc3C1=O)cn2CCCN(C)C` [Example 324, (2Z)-2-({1-[3-(Dimethylamino)propyl]-5-methoxy-1H-indol-3-yl}methylene)-6-hydroxy-1-benzofuran-3(2H)-one] were, in that order, 656 nM, 365 nM and 91.5 nM.
The like results for `COc1ccc2c(c1)c(/C=C1\Oc3cc(O)cc(O)c3C1=O)c(C(=O)N(C)C)n2CC(=O)N(C)C` [Example 325, 3-[(Z)-(4,6-Dihydroxy-3-oxo-1-benzofuran-2(3H)-ylidene)methyl]-1-[2-(dimethylamino)-2-oxoethyl]-5-methoxy-N,N-dimethyl-1H-indole-2-carboxamide] were, in that order, 298 nM, 84 nM and 281 nM.
The matching figures for `COc1ccc2c(c1)c(/C=C1\Oc3c(ccc(O)c3C)C1=O)c(C)n2CCN1CCN(C)CC1` [Example 347, (2Z)-6-Hydroxy-2-({5-methoxy-2-methyl-1-[2-(4-methylpiperazin-1-yl)ethyl]-1H-indol-3-yl}methylene)-7-methyl-1-benzofuran-3(2H)-one]: 8670 nM, > 4000 nM and 408 nM.
Turning to `COc1ccc2c(c1)c(/C=C1\Oc3cc(O)c(Br)cc3C1=O)c(C)n2CCCN(C)C` [Example 350, (2Z)-5-Bromo-2-({1-[3-(dimethylamino)propyl]-5-methoxy-2-methyl-1H-indol-3-yl}methylene)-6-hydroxy-1-benzofuran-3(2H)-one], the values for the IC50 on PI3K-gamma, at human TOR and on PI3K-alpha were 6870 nM, > 20000 nM and 114 nM, respectively.
Take `COc1ccc2c(c1)c(/C=C1\Oc3cc(O)c(F)cc3C1=O)c(C)n2CCCN(C)C` [Example 352, (2Z)-2-({1-[3-(Dimethylamino)propyl]-5-methoxy-2-methyl-1H-indol-3-yl}methylene)-5-fluoro-6-hydroxy-1-benzofuran-3(2H)-one]: the half-maximal inhibitory concentration (IC50) was 3930 nM against PI3K-gamma, > 800 nM at human TOR and 116 nM at PI3K-alpha.
Turning to `COc1ccc2c(c1)c(/C=C1\Oc3c(ccc(O)c3Cl)C1=O)c(C)n2CCCN(C)C` [Example 361, (2Z)-7-Chloro-2-({1-[3-(dimethylamino)propyl]-5-methoxy-2-methyl-1H-indol-3-yl}methylene)-6-hydroxy-1-benzofuran-3(2H)-one], the 50% inhibitory concentration (IC50) against PI3K-gamma was 3440 nM; at human TOR, > 800 nM; on PI3K-alpha, 306 nM.
For the compound `O=C1/C(=C/c2c[nH]c3cccc(-c4ccc(F)cc4)c23)Oc2cc(O)cc(O)c21` [Example 363, (2Z)-2-{[4-(4-fluorophenyl)-1H-indol-3-yl]methylene}-4,6-dihydroxy-1-benzofuran-3(2H)-one], the values for the half-inhibitory concentration (IC50) on PI3K-gamma, at human TOR and on PI3K-alpha were 1080 nM, 3500 nM and 1650 nM, respectively.
The like results for `Cn1cc(/C=C2\Oc3cc(O)cc(O)c3C2=O)c2c(-c3ccc(F)cc3)cccc21` [Example 364, (2Z)-2-{[4-(4-Fluorophenyl)-1-methyl-1H-indol-3-yl]methylene}-4,6-dihydroxy-1-benzofuran-3(2H)-one] were, in that order, 1280 nM, 123 nM and 698 nM.
With `Cn1cc(/C=C2\Oc3cc(O)cc(O)c3C2=O)c2c(-c3cccc(F)c3)cccc21` [Example 365, (2Z)-2-{[4-(3-Fluorophenyl)-1-methyl-1H-indol-3-yl]methylene}-4,6-dihydroxy-1-benzofuran-3(2H)-one], the IC50 against PI3K-gamma came out at 1960 nM; on human TOR, 104 nM; on PI3K-alpha it was 437 nM.
On to `Cn1cc(/C=C2\Oc3cc(O)cc(O)c3C2=O)c2c(-c3ccccc3F)cccc21` [Example 366, (2Z)-2-{[4-(2-Fluorophenyl)-1-methyl-1H-indol-3-yl]methylene}-4,6-dihydroxy-1-benzofuran-3(2H)-one], for which the IC50 on PI3K-gamma was 3930 nM; on human TOR, 75.5 nM; on PI3K-alpha it was 1090 nM.
Turning to `Cn1cc(/C=C2\Oc3cc(O)cc(O)c3C2=O)c2c(-c3cccc(C#N)c3)cccc21` [Example 367, 3-{3-[(Z)-(4,6-Dihydroxy-3-oxo-1-benzofuran-2(3H)-ylidene)methyl]-1-methyl-1H-indol-4-yl}benzonitrile], the IC50 was 5420 nM against PI3K-gamma, 500 nM at human TOR and 1440 nM at PI3K-alpha.
Regarding `Cn1cc(/C=C2\Oc3cc(O)cc(O)c3C2=O)c2c(-c3ccc(C#N)cc3)cccc21` [Example 368, 4-{3-[(Z)-(4,6-Dihydroxy-3-oxo-1-benzofuran-2(3H)-ylidene)methyl]-1-methyl-1H-indol-4-yl}benzonitrile], the IC50 at PI3K-gamma worked out at 4570 nM; at human TOR, 44.5 nM; at PI3K-alpha it was 1000 nM.
The matching figures for `Cn1cc(/C=C2\Oc3cc(O)cc(O)c3C2=O)c2c(-c3ccc(N)cc3)cccc21` [Example 370, (2Z)-2-{[4-(4-Aminophenyl)-1-methyl-1H-indol-3-yl]methylene}-4,6-dihydroxy-1-benzofuran-3(2H)-one]: 3000 nM, 14 nM and 1070 nM.
Take `COc1ccc(-c2cccc3[nH]cc(/C=C4\Oc5cc(O)cc(O)c5C4=O)c23)cc1` [Example 371, (2Z)-4,6-dihydroxy-2-{[4-(4-methoxyphenyl)-1H-indol-3-yl]methylene}benzofuran-3(2H)-one]: the results for the concentration for half-maximal inhibition (IC50) against PI3K-gamma, on human TOR and at PI3K-alpha were 763 nM, 730 nM and 1010 nM, respectively.
Consider `CC(=O)c1ccc(-c2cccc3c2c(/C=C2\Oc4cc(O)cc(O)c4C2=O)cn3C)cc1` [Example 372, (2Z)-2-{[4-(4-Acetylphenyl)-1-methyl-1H-indol-3-yl]methylene}-4,6-dihydroxy-1-benzofuran-3(2H)-one], for which the concentration for half-maximal inhibition (IC50) stood at 3000 nM against PI3K-gamma, 26 nM on human TOR and 738 nM at PI3K-alpha.
With `Cn1cc(/C=C2\Oc3cc(O)cc(O)c3C2=O)c2c(-c3ccncc3)cccc21` [Example 373, (2Z)-4,6-Dihydroxy-2-[(1-methyl-4-pyridin-4-yl-1H-indol-3-yl)methylene]-1-benzofuran-3(2H)-one], the concentration for half-maximal inhibition (IC50) is > 10000 nM at PI3K-gamma, 300 nM on human TOR and 4770 nM at PI3K-alpha.
The matching figures for `Cn1cc(/C=C2\Oc3cc(O)cc(O)c3C2=O)c2c(-c3ccsc3)cccc21` [Example 374, (2Z)-4,6-Dihydroxy-2-{[1-methyl-4-(3-thienyl)-1H-indol-3-yl]methylene}-1-benzofuran-3(2H)-one]: 4200 nM, 110 nM and 2610 nM.
The matching figures for `Cn1cc(/C=C2\Oc3cc(O)cc(O)c3C2=O)c2c(-c3cccnc3)cccc21` [Example 375, (2Z)-4,6-Dihydroxy-2-[(1-methyl-4-pyridin-3-yl-1H-indol-3-yl)methylene]-1-benzofuran-3(2H)-one]: 9500 nM, 28 nM and 2810 nM.
The like results for `Cn1cc(/C=C2\Oc3cc(O)cc(O)c3C2=O)c2c(-c3ccc(C(N)=O)cc3)cccc21` [Example 377, 4-{3-[(Z)-(4,6-Dihydroxy-3-oxo-1-benzofuran-2(3H)-ylidene)methyl]-1-methyl-1H-indol-4-yl}benzamide] were, in that order, 4070 nM, 7 nM and 496 nM.
For the compound `Cn1cc(/C=C2\Oc3cc(O)cc(O)c3C2=O)c2c(-c3ccoc3)cccc21` [Example 378, (2Z)-2-{[4-(3-Furyl)-1-methyl-1H-indol-3-yl]methylene}-4,6-dihydroxy-1-benzofuran-3(2H)-one], the half-maximal inhibitory concentration (IC50) at PI3K-gamma came out at 3400 nM; at human TOR it was 107 nM; on PI3K-alpha, 971 nM.
The like results for `Cn1cc(/C=C2\Oc3cc(O)cc(O)c3C2=O)c2c(-c3ccc(O)cc3)cccc21` [Example 379, (2Z)-4,6-Dihydroxy-2-{[4-(4-hydroxyphenyl)-1-methyl-1H-indol-3-yl]methylene}-1-benzofuran-3(2H)-one] were, in that order, 1090 nM, 29 nM and 562 nM.
The matching figures for `Cn1cc(/C=C2\Oc3cc(O)cc(O)c3C2=O)c2c(-c3ccc(N)nc3)cccc21` [Example 380, (2Z)-2-{[4-(6-Aminopyridin-3-yl)-1-methyl-1H-indol-3-yl]methylene}-4,6-dihydroxy-1-benzofuran-3(2H)-one]: 3260 nM, 89 nM and 432 nM.
As to `CC(C)Oc1ccc(-c2cccc3c2c(/C=C2\Oc4cc(O)cc(O)c4C2=O)cn3C)cc1` [Example 381, (2Z)-4,6-dihydroxy-2-{[4-(4-isopropoxyphenyl)-1-methyl-1H-indol-3-yl]methylene}-1-benzofuran-3(2H)-one], the half-maximal inhibitory concentration (IC50) turned out to be 3950 nM on PI3K-gamma, 180 nM on human TOR and 2740 nM on PI3K-alpha.
